According to patent publication US20110295343A1, “NEAR-INFRARED ELECTROMAGNETIC MODIFICATION OF CELLULAR STEADY-STATE MEMBRANE POTENTIALS” (priority 2008, published 2011):

System: MRSA
Test: CFU counts of MRSA plated on agar with antibiotic after sub-lethal NIMELS laser (Examples IX-XII)
Assay type: cell-based, Staphylococcus aureus
Settings: antibiotic at resistant MIC just below effectiveness level

With `COc1cccc(OC)c1C(=O)N[C@@H]1C(=O)N2[C@@H]1SC(C)(C)[C@@H]2C(=O)O` [Methicillin] the “effect of sub-lethal NIMELS irradiation on antibiotic action against MRSA colonies (words)” value was “successful reversal of MRSA resistance” and the “effect of sub-lethal NIMELS irradiation on antibiotic action against MRSA colonies (words)” value (listed as methicillin) was “being potentiated by the NIMELS effect”.
